Experimental data as given in patent US9938273B2 (Plexxikon Inc., priority 2015, dated 2018).
pIC50: −log10 of the molar value.

How the values were obtained:
FLT3-ITD = target: T1, FLT3-ITD (Homo sapiens, UniProt P36888); test: AlphaScreen kinase assay with recombinant enzyme, FLT3-ITD; format: biochemical; conditions: 8pt; read-out: FLT3_ITD 8pt: IC50
T1 sequence (P36888 1-993): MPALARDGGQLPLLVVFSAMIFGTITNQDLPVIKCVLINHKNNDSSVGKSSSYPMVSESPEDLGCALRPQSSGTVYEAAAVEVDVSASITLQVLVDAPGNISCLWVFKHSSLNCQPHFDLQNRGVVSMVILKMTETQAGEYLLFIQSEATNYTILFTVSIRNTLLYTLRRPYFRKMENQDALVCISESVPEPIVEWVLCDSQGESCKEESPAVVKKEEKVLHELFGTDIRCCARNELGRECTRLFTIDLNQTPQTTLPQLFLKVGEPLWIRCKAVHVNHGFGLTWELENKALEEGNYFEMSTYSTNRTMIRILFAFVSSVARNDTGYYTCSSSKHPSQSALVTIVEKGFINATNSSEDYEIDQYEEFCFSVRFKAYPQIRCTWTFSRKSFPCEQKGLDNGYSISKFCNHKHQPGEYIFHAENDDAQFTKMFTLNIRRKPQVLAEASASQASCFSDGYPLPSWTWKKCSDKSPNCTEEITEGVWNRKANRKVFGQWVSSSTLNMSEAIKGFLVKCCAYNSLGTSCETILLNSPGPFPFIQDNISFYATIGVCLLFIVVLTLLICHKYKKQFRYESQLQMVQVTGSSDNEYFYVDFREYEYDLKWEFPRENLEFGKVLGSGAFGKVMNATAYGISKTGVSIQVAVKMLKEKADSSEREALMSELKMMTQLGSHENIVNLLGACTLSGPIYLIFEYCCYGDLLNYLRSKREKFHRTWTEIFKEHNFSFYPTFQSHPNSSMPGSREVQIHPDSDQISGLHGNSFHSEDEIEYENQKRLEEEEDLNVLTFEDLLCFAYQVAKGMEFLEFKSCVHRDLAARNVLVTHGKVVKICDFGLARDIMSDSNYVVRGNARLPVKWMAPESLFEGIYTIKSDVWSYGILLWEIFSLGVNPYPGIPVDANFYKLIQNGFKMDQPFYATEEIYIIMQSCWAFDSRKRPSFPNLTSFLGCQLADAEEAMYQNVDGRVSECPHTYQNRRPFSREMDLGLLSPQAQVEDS
Procedure, shortened: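 Read-out: AlphaScreen proximity signal at 580 nm (680 nm excitation), lost as peptide tyrosine phosphorylation falls. Substrate Biotin-GG(EEEEY)10EE at 30 nM; IC50 runs at 10 μM (FLT3 mutants) or 100 μM (c-KIT) final. Donor beads 20 min, then acceptor beads 60 min, room temperature.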

[1] = test system: MOLM-14 F691L cells, FLT3 ITD and FLT3 F691L; test: Cell proliferation assay (CellTiter-Glo), MOLM-14 F691L; format: cell-based; conditions: Homo sapiens, 72 h, 3d-Growth, GMean
Procedure, shortened: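 Three-day growth at 37 °C, 5% CO2 under compound (1 μM top final, 1:3 dilutions, eight points, 0.2% DMSO), read as ATP luminescence by CellTiter-Glo for IC50. Cells: MOLM-14 with FLT3 ITD plus D835Y or F691L, and IL-3-deprived Ba/F3 transfected with FLT3 ITD/D835Y, 1×10^4 per well.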

| pIC50 (FLT3-ITD) | pIC50 [1] | SMILES |
| --- | --- | --- |
| 5.00 to 10.00 | 5.00 to 10.00 | N#CC1CCN(C(=O)c2cccc(-c3cnc4[nH]c(-c5ccc(F)cc5)cc4c3)n2)C1 (stereo not shown) [Compound P-0116, 1-[6-[2-(4-fluorophenyl)-1H-pyrrolo[2,3-b]pyridin-5-yl]pyridine-2-carbonyl]pyrrolidine-3-carbonitrile] |
| 5.00 to 10.00 | 5.00 to 10.00 | CC(C)(C#N)NC(=O)c1cccc(-c2cnc3[nH]c(-c4cscn4)cc3c2)n1 [Compound P-0167, N-(1-cyano-1-methyl-ethyl)-6-(2-thiazol-4-yl-1H-pyrrolo[2,3-b]pyridin-5-yl)pyridine-2-carboxamide] |
| 5.00 to 10.00 | 5.00 to 10.00 | CC(C)(C#N)NC(=O)c1cccc(-c2cnc3[nH]c(-c4cnn(C(=O)C5CC5)c4)cc3c2)n1 [Compound P-0184, N-(1-cyano-1-methyl-ethyl)-6-[2-[1-(cyclopropanecarbonyl)pyrazol-4-yl]-1H-pyrrolo[2,3-b]pyridin-5-yl]pyridine-2-carboxamide] |
| 5.00 to 10.00 | 5.00 to 10.00 | CC(C)(C#N)NC(=O)c1cccc(-c2cnc3[nH]c(-c4cnn(C(F)F)c4)c(Cl)c3c2)n1 [Compound P-0185, 6-[3-chloro-2-[1-(difluoromethyl)pyrazol-4-yl]-1H-pyrrolo[2,3-b]pyridin-5-yl]-N-(1-cyano-1-methyl-ethyl)pyridine-2-carboxamide] |
| 5.00 to 10.00 | 5.00 to 10.00 | CC(C)(C#N)NC(=O)c1cccc(-c2cnc3[nH]c(C4=CCS(=O)(=O)CC4)cc3c2)n1 [Compound P-0186, N-(1-cyano-1-methyl-ethyl)-6-[2-(1,1-dioxo-3,6-dihydro-2H-thiopyran-4-yl)-1H-pyrrolo[2,3-b]pyridin-5-yl]pyridine-2-carboxamide] |
| 5.00 to 10.00 | 5.00 to 10.00 | CC(C)Oc1ccc(-c2cc3cc(-c4cccc(C(=O)NC(C)(C)C#N)n4)cnc3[nH]2)cn1 [Compound P-0190, N-(1-cyano-1-methyl-ethyl)-6-[2-(6-isopropoxy-3-pyridyl)-1H-pyrrolo[2,3-b]pyridin-5-yl]pyridine-2-carboxamide] |
| 5.00 to 10.00 | 5.00 to 10.00 | CC(C)Oc1ncc(-c2cc3cc(-c4cccc(C(=O)NC(C)(C)C#N)n4)cnc3[nH]2)cn1 [Compound P-0191, N-(1-cyano-1-methyl-ethyl)-6-[2-(2-isopropoxypyrimidin-5-yl)-1H-pyrrolo[2,3-b]pyridin-5-yl]pyridine-2-carboxamide] |
| 5.00 to 10.00 | 5.00 to 10.00 | Cc1nn(C(C)C)cc1-c1[nH]c2ncc(-c3cccc(C(=O)NC(C)(C)C#N)n3)cc2c1Cl [Compound P-0192] |
| 5.00 to 10.00 | 5.00 to 10.00 | CC(C)(C#N)NC(=O)c1cccc(-c2cnc3[nH]c(-c4cnn(CC(F)(F)F)c4)cc3c2)n1 [Compound P-0193, N-(1-cyano-1-methyl-ethyl)-6-[2-[1-(2,2,2-trifluoroethyl)pyrazol-4-yl]-1H-pyrrolo[2,3-b]pyridin-5-yl]pyridine-2-carboxamide] |
| 5.00 to 10.00 | 5.00 to 10.00 | CC(C)(C#N)NC(=O)c1cccc(-c2cnc3[nH]c(-c4ccc(C5(C#N)CC5)cc4)cc3c2)n1 [Compound P-0194, 6-[2-[4-(1-cyanocyclopropyl)phenyl]-1H-pyrrolo[2,3-b]pyridin-5-yl]-N-(1-cyano-1-methyl-ethyl)pyridine-2-carboxamide] |
| 5.00 to 10.00 | 5.00 to 10.00 | CC(C)(C#N)NC(=O)c1cccc(-c2cnc3[nH]c(-c4cncnc4)cc3c2)n1 [Compound P-0195, N-(1-cyano-1-methyl-ethyl)-6-(2-pyrimidin-5-yl-1H-pyrrolo[2,3-b]pyridin-5-yl)pyridine-2-carboxamide] |
| 5.00 to 10.00 | 5.00 to 10.00 | COc1ncc(-c2cc3cc(-c4cccc(C(=O)NC(C)(C)C#N)n4)cnc3[nH]2)cn1 [Compound P-0196, N-(1-cyano-1-methyl-ethyl)-6-[2-(2-methoxypyrimidin-5-yl)-1H-pyrrolo[2,3-b]pyridin-5-yl]pyridine-2-carboxamide] |
| 5.00 to 10.00 | 5.00 to 10.00 | CC(C)(C#N)NC(=O)c1cccc(-c2cnc3[nH]c(-c4ccc(N5CCOCC5)nc4)cc3c2)n1 [Compound P-0197, N-(1-cyano-1-methyl-ethyl)-6-[2-(6-morpholino-3-pyridyl)-1H-pyrrolo[2,3-b]pyridin-5-yl]pyridine-2-carboxamide] |
| 5.00 to 10.00 | 5.00 to 10.00 | CC(C)(C#N)NC(=O)c1cccc(-c2cnc3[nH]c(-c4ccc(C(F)(F)F)nc4)cc3c2)n1 [Compound P-0201, N-(1-cyano-1-methyl-ethyl)-6-[2-[6-(trifluoromethyl)-3-pyridyl]-1H-pyrrolo[2,3-b]pyridin-5-yl]pyridine-2-carboxamide] |
| 5.00 to 10.00 | 5.00 to 10.00 | CCOc1ncc(-c2cc3cc(-c4cccc(C(=O)NC(C)(C)C#N)n4)cnc3[nH]2)cn1 [Compound P-0203, N-(1-cyano-1-methyl-ethyl)-6-[2-(2-ethoxypyrimidin-5-yl)-1H-pyrrolo[2,3-b]pyridin-5-yl]pyridine-2-carboxamide] |
| 5.00 to 10.00 | 5.00 to 10.00 | CC(C)(C#N)NC(=O)c1cccc(-c2cnc3[nH]c(-c4cnc(C(F)(F)F)nc4)cc3c2)n1 [Compound P-0204, N-(1-cyano-1-methyl-ethyl)-6-[2-[2-(trifluoromethyl)pyrimidin-5-yl]-1H-pyrrolo[2,3-b]pyridin-5-yl]pyridine-2-carboxamide] |
| 5.00 to 10.00 | 5.00 to 10.00 | CCc1ncc(-c2cc3cc(-c4cccc(C(=O)NC(C)(C)C#N)n4)cnc3[nH]2)cn1 [Compound P-0205, N-(1-cyano-1-methyl-ethyl)-6-[2-(2-ethylpyrimidin-5-yl)-1H-pyrrolo[2,3-b]pyridin-5-yl]pyridine-2-carboxamide] |
| 5.00 to 10.00 | 5.00 to 10.00 | CCCOc1ncc(-c2cc3cc(-c4cccc(C(=O)NC(C)(C)C#N)n4)cnc3[nH]2)cn1 [Compound P-0206, N-(1-cyano-1-methyl-ethyl)-6-[2-(2-propoxypyrimidin-5-yl)-1H-pyrrolo[2,3-b]pyridin-5-yl]pyridine-2-carboxamide] |
| 5.00 to 10.00 | 5.00 to 10.00 | CC(C)(C#N)NC(=O)c1cccc(-c2cnc3[nH]c(-c4ccc(F)nc4)cc3c2)n1 [Compound P-0208, N-(1-cyano-1-methyl-ethyl)-6-[2-(6-fluoro-3-pyridyl)-1H-pyrrolo[2,3-b]pyridin-5-yl]pyridine-2-carboxamide] |
| 5.00 to 10.00 | 5.00 to 10.00 | CC(C)(C#N)NC(=O)c1cccc(-c2cnc3[nH]c(-c4cnc(C(C)(C)O)nc4)cc3c2)n1 [Compound P-0211, N-(1-cyano-1-methyl-ethyl)-6-[2-[2-(1-hydroxy-1-methyl-ethyl)pyrimidin-5-yl]-1H-pyrrolo[2,3-b]pyridin-5-yl]pyridine-2-carboxamide] |
